Tested on: SEM cells
Experiment: cell viability relative to DMSO control; higher = less cytotoxic
Details: 48 h
Procedure, shortened: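 Cells were incubated for 48 h at 37°C before CellTiter-Glo One luminescence was read. The cells were NOMO1 or SEM (500 cells/well) or P12-Ichikawa (1000 cells/well) leukemia cells, adapted for at least four passages in each medium and seeded in 1536-well plates (5 μl). Dosing used library compounds in DMSO applied by pin over 11 threefold points, 47 μM to 0.79 nM. Viability is the per-plate percentage of DMSO wells, with cell-free wells as background.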

[1] = HPLM + 10% dialyzed FBS, 0.000781 µM
[2] = HPLM + 10% dialyzed FBS, 0.00234 µM
[3] = HPLM + 10% dialyzed FBS, 0.00702 µM
[4] = HPLM + 10% dialyzed FBS, 0.0211 µM
[5] = HPLM + 10% dialyzed FBS, 0.0632 µM
[6] = HPLM + 10% dialyzed FBS, 0.19 µM
[7] = HPLM + 10% dialyzed FBS, 0.569 µM
[8] = HPLM + 10% dialyzed FBS, 1.71 µM
[9] = HPLM + 10% dialyzed FBS, 5.12 µM
[10] = HPLM + 10% dialyzed FBS, 15.4 µM
[11] = HPLM + 10% dialyzed FBS, 46.1 µM
[12] = RPMI 5 mM glucose + 10% FBS, 0.000781 µM
[13] = RPMI 5 mM glucose + 10% FBS, 0.00234 µM
[14] = RPMI 5 mM glucose + 10% FBS, 0.00702 µM
[15] = RPMI 5 mM glucose + 10% FBS, 0.0211 µM
[16] = RPMI 5 mM glucose + 10% FBS, 0.0632 µM
[17] = RPMI 5 mM glucose + 10% FBS, 0.19 µM
[18] = RPMI 5 mM glucose + 10% FBS, 0.569 µM
[19] = RPMI 5 mM glucose + 10% FBS, 1.71 µM
[20] = RPMI 5 mM glucose + 10% FBS, 5.12 µM
[21] = RPMI 5 mM glucose + 10% FBS, 15.4 µM
[22] = RPMI 5 mM glucose + 10% FBS, 46.1 µM
[23] = RPMI 5 mM glucose + 10% dialyzed FBS, 0.000781 µM
[24] = RPMI 5 mM glucose + 10% dialyzed FBS, 0.00234 µM
[25] = RPMI 5 mM glucose + 10% dialyzed FBS, 0.00702 µM
[26] = RPMI 5 mM glucose + 10% dialyzed FBS, 0.0211 µM
[27] = RPMI 5 mM glucose + 10% dialyzed FBS, 0.0632 µM
[28] = RPMI 5 mM glucose + 10% dialyzed FBS, 0.19 µM
[29] = RPMI 5 mM glucose + 10% dialyzed FBS, 0.569 µM
[30] = RPMI 5 mM glucose + 10% dialyzed FBS, 1.71 µM
[31] = RPMI 5 mM glucose + 10% dialyzed FBS, 5.12 µM
[32] = RPMI 5 mM glucose + 10% dialyzed FBS, 15.4 µM
[33] = RPMI 5 mM glucose + 10% dialyzed FBS, 46.1 µM

| SMILES | cell viability [1] [%] | cell viability [2] [%] | cell viability [3] [%] | cell viability [4] [%] | cell viability [5] [%] | cell viability [6] [%] | cell viability [7] [%] | cell viability [8] [%] | cell viability [9] [%] | cell viability [10] [%] | cell viability [11] [%] | cell viability [12] [%] | cell viability [13] [%] | cell viability [14] [%] | cell viability [15] [%] | cell viability [16] [%] | cell viability [17] [%] | cell viability [18] [%] | cell viability [19] [%] | cell viability [20] [%] | cell viability [21] [%] | cell viability [22] [%] | cell viability [23] [%] | cell viability [24] [%] | cell viability [25] [%] | cell viability [26] [%] | cell viability [27] [%] | cell viability [28] [%] | cell viability [29] [%] | cell viability [30] [%] | cell viability [31] [%] | cell viability [32] [%] | cell viability [33] [%] |
| --- | --- | --- | --- | --- | --- | --- | --- | --- | --- | --- | --- | --- | --- | --- | --- | --- | --- | --- | --- | --- | --- | --- | --- | --- | --- | --- | --- | --- | --- | --- | --- | --- | --- |
| CC(/C=C/C(=O)NO)=C\[C@@H](C)C(=O)c1ccc(N(C)C)cc1 | 108 | 126 | 109 | 100 | 111 | 101 | 59 | 8.01 | 3.01 | 2.86 | 2.07 | 112 | 117 | 115 | 97.7 | 115 | 115 | 66.2 | 5.17 | 3.1 | 2.52 | 1.53 | 102 | 112 | 116 | 105 | 106 | 102 | 56.2 | 8.19 | 3.94 | 3.72 | 1.86 |
| CC1(C)CNc2cc(NC(=O)c3cccnc3NCc3ccncc3)ccc21 | 118 | 118 | 121 | 112 | 102 | 104 | 92.4 | 101 | 96.3 | 93 | 13.2 | 85.4 | 70.9 | 87.7 | 79.4 | 79.7 | 79.4 | 73.9 | 75.4 | 78.1 | 70.1 | 12.9 | 111 | 112 | 105 | 128 | 125 | 100 | 102 | 91.1 | 79.2 | 90.6 | 7.67 |
| Nc1cccc2c1CN([C@H]1CCC(=O)NC1=O)C2=O | 120 | 131 | 110 | 121 | 115 | 114 | 103 | 97.6 | 81.8 | 99.5 | 89.5 | – | – | – | – | – | – | – | – | – | – | – | 109 | 108 | 117 | 111 | 120 | 109 | 111 | 103 | 103 | 88.8 | 81.4 |

— the supplement of paper PMC11451515
